Measured values: PMC7794397, “Curbing gastrointestinal infections by defensin fragment modifications without harming commensal microbiota” (Communications Biology, 2021)
In brackets after ≈: the same amount, converted by molar mass. Read-outs that look alike come from different tables or passages of the source. Non-standard residues stand in square brackets, D forms with d. Residues, ends and D or L forms follow the SMILES beside them. ξ: configuration not given here. *: point of attachment. X2 = CCCCCCCCCCCCCCCC(=O)OCC(COC(=O)CCC(=O)*)OC(=O)CCCCCCCCCCCCCCC; X1 = CCCCCCCCCCCCCCCC(=O)OCC(C*)OC(=O)CCCCCCCCCCCCCCC; Palmitoyl = CCCCCCCCCCCCCCCC(=O)*; ξK = NCCCCC(N)C(=O)O; ξC = NC(CS)C(=O)O

Experiments:
E. coli = test: Antibiogram of ESKAPE pathogens; format: cell-based; conditions: Escherichia coli, column assigned by order in flattened table
Text: (§1) Supplementary Table 1. Antibiogram of ESKAPE pathogens used in this study.
(§2) Bacteria susceptible to all (blue color) or intermediate/resistant to at least one (red color) of antibiotics per class following the EUCAST breakpoints. Black color is shown if the susceptibility to agents in that class is not assessed. Values are minimal inhibition concentrations (MIC) in µg/ml or for Chloramphenicol in diameter (mm). […]

ESKAPE pathogens = test: organism not typed
Text: as §1, §2

E. faecium = test: microbe, parasite or virus in culture; conditions: for MIC: Enterococcus faecium
Text: as §1, §2

[1] = test system: several pathogenic bacteria; test: Radial diffusion assay, all tested strains; format: cell-based
Method: (§3) Antimicrobial activity was analyzed by radial diffusion assay. Log-phase bacteria were cultivated for up to 18 h in TSB (TSB, Becton Dickinson, USA), washed and diluted to 4 × 10^6 CFU in 10 ml agar. Bacteria were incubated in 10 ml of 10 mM sodium phosphate, pH 7.4, containing 0.3 mg/ml of TSB powder and 1% (w/v) low EEO-agarose (AppliChem). 1 µg of each lipopeptide was pipetted into punched wells in a final volume of 4 µl and diffused into the gel for 3 h at 37 °C. After that, a nutrient-rich gel with 6% TSB (w/v) and 1% agarose in 10 mM sodium phosphate buffer was poured on top of the first gel and incubated for up to 24 h at 37 °C. Then the diameter of inhibition zones was measured.

[2] = test system: multidrug resistant bacteria belonging to the ESKAPE pathogen panel; format: cell-based; conditions: broth microdilution, ESKAPE panel
Method: Bactericidal activity was assessed by broth microdilution assay. […] After incubation, 100 µl of 6% TSB (w/v) were added and absorbance was measured at 600 nm (Tecan, Switzerland) and monitored for 18 h. Afterward, 100 µl per well were plated on LB agar to determine the numbers of viable bacteria microbiologically. Bactericidal activity is expressed as the LC99.9, the lowest concentration that killed ≥99.9 % of bacteria.

S. aureus ATCC 25923 = format: cell-based; conditions: for Fold change in MIC: relative to MIC of first passage, Mean
Method: Development of resistance to the peptides was assessed with S. aureus and S. Typhimurium. […] Bacteria were cultured overnight at 37 °C at 150 rpm in TSB. Bacteria were washed twice with 10 mM sodium phosphate buffer containing 1% (w/v) TSB. […] After incubation, 100 µl of 6% TSB (w/v) was added and plates incubated in a humidified atmosphere for 21 h at 37 °C and 150 rpm.
The MIC, the lowest concentration of peptide/antibiotic that caused a lack of visible bacterial growth, was determined for each bacterial species. […] This was repeated for 25 passages.

S. aureus [3] = test: Antibiogram of ESKAPE pathogens; format: cell-based; conditions: Staphylococcus aureus
Text: as §1, §2

S. Typhimurium = format: cell-based; conditions: for diameter of inhibition zone: 1 µg peptide/well, 2.5 mm = empty well
Method: as §3

P. aeruginosa = format: cell-based; conditions: 1 µg peptide/well, 2.5 mm = empty well
Method: as §3

S. aureus [4] = format: cell-based; conditions: 1 µg peptide/well, 2.5 mm = empty well
Method: as §3

C. rodentium = format: cell-based; conditions: 1 µg peptide/well, 2.5 mm = empty well
Method: as §3

## CC1(C)S[C@@H]2[C@H](NC(=O)[C@H](N)c3ccccc3)C(=O)N2[C@H]1C(=O)O [Ampicillin]
E. coli; strain DSM682
  MIC: ≥ 32 µg/mL
E. coli; strain DSM8695
  MIC: 8 µg/mL (≈ 22.9 µM)

## C[C@H]1[C@H](NC(=O)/C(=N\OC(C)(C)C(=O)O)c2csc(N)n2)C(=O)N1S(=O)(=O)O [Aztreonam]
ESKAPE pathogens; read-out: MIC (antibiogram)
  MIC: > 256 µg/mL

## CO/N=C(\C(=O)N[C@@H]1C(=O)N2C(C(=O)O)=C(COC(N)=O)CS[C@H]12)c1ccco1 [Cefuroxim]
E. coli; strain DSM682
  MIC: ≥ 64 µg/mL

## O=C(N[C@H](CO)[C@H](O)c1ccc([N+](=O)[O-])cc1)C(Cl)Cl [Chloramphenicol]
ESKAPE pathogens; one strain of E. faecium, S. aureus or K. pneumoniae, not assignable
  diameter (antibiogram): 22 mm

## CCCCCCCCCC(=O)N[C@@H](Cc1c[nH]c2ccccc12)C(=O)N[C@H](CC(N)=O)C(=O)N[C@@H](CC(=O)O)C(=O)N[C@@H]1C(=O)NCC(=O)N[C@@H](CCCN)C(=O)N[C@@H](CC(=O)O)C(=O)N[C@H](C)C(=O)N[C@@H](CC(=O)O)C(=O)NCC(=O)N[C@H](CO)C(=O)N[C@@H]([C@H](C)CC(=O)O)C(=O)N[C@@H](CC(=O)c2ccccc2N)C(=O)O[C@@H]1C [Daptomycin]
E. faecium
  MIC (antibiogram): 4 µg/mL (≈ 2.47 µM)

## CNC(C)C1CCC(N)C(OC2C(N)CC(N)C(OC3OCC(C)(O)C(NC)C3O)C2O)O1 (centres unmarked) [Gentamicin]
E. coli; strain DSM8695
  MIC: ≤ 1 µg/mL

## C[C@@H](O)[C@H]1C(=O)N2C(C(=O)O)=C(SCCN=CN)C[C@H]12 [Imipenem]
E. coli; strain DSM682
  MIC: 2 µg/mL (≈ 6.68 µM)
E. coli; strain DSM8695
  MIC: ≤ 0.25 µg/mL

## C[C@@H](O)[C@H]1C(=O)N2C(C(=O)O)=C(S[C@@H]3CN[C@H](C(=O)N(C)C)C3)[C@H](C)[C@H]12 [Meropenem]
E. coli; strain DSM682
  MIC: 8 µg/mL (≈ 20.9 µM)
E. coli; strain DSM8695
  MIC: ≤ 0.25 µg/mL

## CCCCCCCCCCCCCCCC(=O)OCC(COC(=O)CCC(=O)N[C@@H](CCCNC(=N)N)C(=O)NCC(=O)N[C@@H](CCCCN)C(=O)N[C@@H](C)C(=O)N[C@@H](CCCCN)C(=O)N[C@@H](CS)C(=O)N[C@@H](CS)C(=O)N[C@@H](CCCCN)C(=O)O)OC(=O)CCCCCCCCCCCCCCC (some centres unmarked) [Pam-1] (X2-RGKAKCCK-OH; C-terminus assumed)
[1]
  antimicrobial activity (in words): generally inactive
[2]
  bactericidal activity (in words): no or low bactericidal activity

## CCCCCCCCCCCCCCCC(=O)NC(CSCC(COC(=O)CCCCCCCCCCCCCCC)OC(=O)CCCCCCCCCCCCCCC)C(=O)N[C@@H](CCCNC(=N)N)C(=O)NCC(=O)N[C@@H](CCCCN)C(=O)N[C@@H](C)C(=O)N[C@@H](CCCCN)C(=O)N[C@@H](CS)C(=O)N[C@@H](CS)C(=O)N[C@@H](CCCCN)C(=O)O (some centres unmarked) [Pam-4] (Palmitoyl-[ξC](X1)RGKAKCCK-OH; C-terminus assumed)
[1]
  antimicrobial activity (in words): generally inactive
[2]
  bactericidal activity (in words): no or low bactericidal activity

## CCCCCCCCCCCCCCCC(=O)NCCCCC(NC(=O)CCCCCCCCCCCCCCC)C(=O)N[C@@H](CCCNC(=N)N)C(=O)NCC(=O)N[C@@H](CCCCN)C(=O)N[C@@H](C)C(=O)N[C@@H](CCCCN)C(=O)N[C@@H](CS)C(=O)N[C@@H](CS)C(=O)N[C@@H](CCCCN)C(=O)O (some centres unmarked) [Pam-5] (Palmitoyl-[ξK](Palmitoyl)RGKAKCCK-OH; C-terminus assumed)
[1]
  antimicrobial activity (in words): generally inactive
[2]
  bactericidal activity (in words): moderate effects

## CCN1CCN(C(=O)N[C@@H](C(=O)N[C@@H]2C(=O)N3[C@@H]2SC(C)(C)[C@@H]3C(=O)O)c2ccccc2)C(=O)C1=O [Piperacillin]
E. coli; strain DSM8695
  MIC: ≤ 4 µg/mL

## CO[C@H]1/C=C/O[C@@]2(C)Oc3c(C)c(O)c4c(O)c(c(/C=N/N5CCN(C)CC5)c(O)c4c3C2=O)NC(=O)/C(C)=C\C=C\[C@H](C)[C@H](O)[C@@H](C)[C@@H](O)[C@@H](C)[C@H](OC(C)=O)[C@@H]1C [Rifampicin, reference compound]
S. aureus ATCC 25923; Day (passage) 0
  Fold change in MIC: 1.0
S. aureus ATCC 25923; Day (passage) 1
  Fold change in MIC: 0.8
S. aureus ATCC 25923; Day (passage) 2
  Fold change in MIC: 1.0
S. aureus ATCC 25923; Day (passage) 3
  Fold change in MIC: 1.0
S. aureus ATCC 25923; Day (passage) 4
  Fold change in MIC: 1.7
S. aureus ATCC 25923; Day (passage) 5
  Fold change in MIC: 3.7
S. aureus ATCC 25923; Day (passage) 6
  Fold change in MIC: 43.3
S. aureus ATCC 25923; Day (passage) 7
  Fold change in MIC: 87.3
S. aureus ATCC 25923; Day (passage) 8
  Fold change in MIC: 163.3
S. aureus ATCC 25923; Day (passage) 9
  Fold change in MIC: 348.0
S. aureus ATCC 25923; Day (passage) 10
  Fold change in MIC: 768.7
S. aureus ATCC 25923; Day (passage) 11
  Fold change in MIC: 1366.0
S. aureus ATCC 25923; Day (passage) 12
  Fold change in MIC: 2731.4
S. aureus ATCC 25923; Day (passage) 13
  Fold change in MIC: 2732.0
S. aureus ATCC 25923; Day (passage) 14
  Fold change in MIC: 3200.7
S. aureus ATCC 25923; Day (passage) 15
  Fold change in MIC: 4267.4
S. aureus ATCC 25923; Day (passage) 16
  Fold change in MIC: 4267.4
S. aureus ATCC 25923; Day (passage) 17
  Fold change in MIC: 4268.0
S. aureus ATCC 25923; Day (passage) 18
  Fold change in MIC: 4267.4
S. aureus ATCC 25923; Day (passage) 19
  Fold change in MIC: 2733.4
S. aureus ATCC 25923; Day (passage) 20
  Fold change in MIC: 2731.5
S. aureus ATCC 25923; Day (passage) 21
  Fold change in MIC: 2731.4
S. aureus ATCC 25923; Day (passage) 22
  Fold change in MIC: 2731.4
S. aureus ATCC 25923; Day (passage) 23
  Fold change in MIC: 2733.4
S. aureus ATCC 25923; Day (passage) 24
  Fold change in MIC: 2741.4
S. aureus ATCC 25923; Day (passage) 25
  Fold change in MIC: 2816.0
S. aureus ATCC 25923; after 15 passages
  increase of MIC: ≥ 4096 fold

## CN(C)[C@@H]1C(=O)C(C(N)=O)=C(O)[C@@]2(O)C(=O)C3=C(O)c4c(O)cccc4[C@@](C)(O)[C@H]3C[C@@H]12 [Tetracyclin]
ESKAPE pathogens; one strain of A. baumannii, P. aeruginosa or E. coli, not assignable
  MIC (antibiogram): ≥ 256 µg/mL

## NC[C@H]1O[C@H](O[C@H]2[C@H](O)[C@@H](O[C@H]3O[C@H](CO)[C@@H](O)[C@H](N)[C@H]3O)[C@H](N)C[C@@H]2N)[C@H](N)C[C@@H]1O [Tobramycin]
E. coli; strain DSM8695
  MIC: ≤ 1 µg/mL

## CN[C@H](CC(C)C)C(=O)N[C@H]1C(=O)N[C@@H](CC(N)=O)C(=O)N[C@H]2C(=O)N[C@H]3C(=O)N[C@H](C(=O)N[C@H](C(=O)O)c4cc(O)cc(O)c4-c4cc3ccc4O)[C@H](O)c3ccc(c(Cl)c3)Oc3cc2cc(c3O[C@@H]2O[C@H](CO)[C@@H](O)[C@H](O)[C@H]2O[C@H]2C[C@](C)(N)[C@H](O)[C@H](C)O2)Oc2ccc(cc2Cl)[C@H]1O [Vancomycin]
E. faecium; DSM2918, read-out: MIC (antibiogram)
  MIC: ≥ 32 µg/mL
E. faecium; read-out: MIC (antibiogram)
  MIC: ≥ 32 µg/mL
S. aureus [3]; ATCC33592, read-out: MIC (antibiogram)
  MIC: 1 µg/mL (≈ 0.69 µM)
S. aureus [3]; ATCC43300, read-out: MIC (antibiogram)
  MIC: 1 µg/mL (≈ 0.69 µM)
S. aureus [3]; DSM20231, read-out: MIC (antibiogram)
  MIC: 1 µg/mL (≈ 0.69 µM)

## RGKAKCCK [Octapeptide, the C-terminal eight amino acids of human β-defensin 1]
S. Typhimurium; experiment 1 of 3
  diameter of inhibition zone: 2.5 mm
S. Typhimurium; experiment 2 of 3
  diameter of inhibition zone: 2.5 mm
S. Typhimurium; experiment 3 of 3
  diameter of inhibition zone: 2.5 mm
S. Typhimurium; radial diffusion assay
  inhibition of S. Typhimurium growth (in words): failed to inhibit
P. aeruginosa; experiment 1 of 3
  diameter of inhibition zone: 3.5 mm
P. aeruginosa; experiment 2 of 3
  diameter of inhibition zone: 4 mm
P. aeruginosa; experiment 3 of 3
  diameter of inhibition zone: 4 mm
S. aureus [4]; experiment 1 of 3
  diameter of inhibition zone: 6 mm
S. aureus [4]; experiment 2 of 3
  diameter of inhibition zone: 7 mm
S. aureus [4]; experiment 3 of 3
  diameter of inhibition zone: 6.5 mm
C. rodentium; experiment 1 of 3
  diameter of inhibition zone: 5.5 mm
C. rodentium; experiment 2 of 3
  diameter of inhibition zone: 5 mm
C. rodentium; experiment 3 of 3
  diameter of inhibition zone: 5.5 mm
